These results are taken from patent publication US12637414B2, “Arylamides and methods of use thereof” (Genzyme Corporation, priority 2019, dated 2026).

The experiment addresses T1, human Cystic Fibrosis Transmembrane Conductance Regulator (CFTR) harboring the ΔF508 mutation (Homo sapiens, UniProt P13569, DEL508-508).
T1 construct: expressed in transfected cells; host or cells: H441 carcinoma line (G418 selection)
The experiment is described as follows: H441 cell Emax and EC50: HRP-tagged ΔF508-CFTR cell surface luminescence assay. The class given is cell-based. Particulars: H441 cells expressing ΔF508-CFTR-HRP, 27° C., two nights; for EC50: 15-point dose-response, top 24.5 μM; for Emax: NCI-H441, % of maximum VX809 signal. An outline of the steps: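 Cells express ΔF508-CFTR carrying an HRP tag in extracellular loop 4 (CMV promoter); ~10K cells/well treated with a 15-point series from 24.5 µM and incubated two nights at 27° C. Surface CFTR read by luminescence from HRP substrate. EC50 and Emax given relative to maximal VX809 (260 µM stock) signal.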

T1 sequence (P13569 with tags, fused parts or gaps DEL508-508): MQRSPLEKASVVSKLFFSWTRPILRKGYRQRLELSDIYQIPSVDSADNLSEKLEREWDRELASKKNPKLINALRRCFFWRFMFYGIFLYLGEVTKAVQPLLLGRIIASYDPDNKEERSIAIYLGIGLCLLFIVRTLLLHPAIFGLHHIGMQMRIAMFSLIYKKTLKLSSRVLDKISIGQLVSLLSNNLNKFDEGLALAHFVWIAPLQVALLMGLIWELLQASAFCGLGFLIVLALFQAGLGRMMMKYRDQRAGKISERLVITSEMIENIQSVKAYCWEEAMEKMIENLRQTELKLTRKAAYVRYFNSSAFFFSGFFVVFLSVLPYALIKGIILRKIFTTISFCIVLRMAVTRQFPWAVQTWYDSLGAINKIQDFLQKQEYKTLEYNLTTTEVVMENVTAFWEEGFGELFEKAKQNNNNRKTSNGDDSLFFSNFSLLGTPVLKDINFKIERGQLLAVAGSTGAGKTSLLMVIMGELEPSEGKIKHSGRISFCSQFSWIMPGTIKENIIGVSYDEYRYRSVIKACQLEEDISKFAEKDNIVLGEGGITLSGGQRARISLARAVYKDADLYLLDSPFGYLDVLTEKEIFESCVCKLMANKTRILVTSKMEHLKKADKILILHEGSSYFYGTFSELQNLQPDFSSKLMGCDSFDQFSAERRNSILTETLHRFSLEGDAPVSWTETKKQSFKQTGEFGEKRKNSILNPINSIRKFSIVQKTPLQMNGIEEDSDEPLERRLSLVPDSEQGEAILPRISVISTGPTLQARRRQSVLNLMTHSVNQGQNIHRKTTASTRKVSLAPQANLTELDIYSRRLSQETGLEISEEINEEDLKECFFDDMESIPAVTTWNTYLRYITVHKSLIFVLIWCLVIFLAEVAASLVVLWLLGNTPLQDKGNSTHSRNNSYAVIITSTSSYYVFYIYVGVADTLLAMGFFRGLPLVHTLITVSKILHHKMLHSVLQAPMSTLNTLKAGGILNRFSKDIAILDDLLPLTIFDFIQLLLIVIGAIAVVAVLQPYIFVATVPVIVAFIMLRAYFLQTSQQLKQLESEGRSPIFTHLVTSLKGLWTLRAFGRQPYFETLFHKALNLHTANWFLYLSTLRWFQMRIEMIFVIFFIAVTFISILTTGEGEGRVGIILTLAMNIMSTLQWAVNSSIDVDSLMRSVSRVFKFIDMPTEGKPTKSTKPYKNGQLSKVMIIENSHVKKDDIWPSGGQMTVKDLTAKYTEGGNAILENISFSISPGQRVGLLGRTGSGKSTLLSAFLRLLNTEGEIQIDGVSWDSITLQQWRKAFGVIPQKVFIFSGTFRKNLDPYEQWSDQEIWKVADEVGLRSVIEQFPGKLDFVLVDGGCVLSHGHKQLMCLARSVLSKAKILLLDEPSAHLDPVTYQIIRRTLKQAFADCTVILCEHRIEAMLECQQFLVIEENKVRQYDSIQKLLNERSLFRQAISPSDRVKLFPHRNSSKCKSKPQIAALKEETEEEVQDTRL

Broadly, the EC50 is the concentration needed to bring the measured effect to its halfway point. As a reminder, the Emax is the greatest response seen or fitted, relative to the assay's reference. `O=C(N[C@H](C(=O)O)C12CC3CC(CC(C3)C1)C2)c1ccc2cccnc2c1OCc1nc2ccccc2s1` [compound 51] returned an EC50 of 1.6 µM and an Emax of 206%.

In turn, `O=C(NC(C(=O)O)C12CC3CC(CC(OCC(Cl)Cl)(C3)C1)C2)c1ccc2cc(F)ccc2c1OCc1ccc(C(F)(F)F)cc1` (stereo not shown) [compound 91] gave an EC50 of 0.441 µM and an Emax of 110%.

`O=C(N[C@H](C(=O)O)C12CC3CC(CC(O)(C3)C1)C2)c1ccc2cc(F)ccc2c1OCC1CCC(F)(F)CC1` [compound 21] yielded an EC50 of 4.06 µM and an Emax of 32.5%.

`CC(=O)COC12CC3CC(C1)CC([C@H](NC(=O)c1ccc4cc(F)ccc4c1OCc1ccc(C(F)(F)F)cc1)C(=O)O)(C3)C2` [compound 66] yielded an EC50 of 1.38 µM and an Emax of 84.2%.

`O=C(N[C@H](C(=O)O)C12CC3CC(CC(C3)C1)C2)c1ccc2cccnc2c1OCc1ccc(Cl)c(Cl)c1` [compound 31] returned a concentration giving a half-maximal response (EC50) of 0.308 µM and an Emax of 194%.
